The test system of assay [1] is Akt(S473). The assay can be described thus: Phospho-Akt(S473) in PC3 cell lysates, MSD. The format is cell-based, human. As to conditions: PC3, 1 hour exposure; read-out: p-Akt (S473) IC50. The source says: The direct substrate for TORC1 was 4E-BP 1(T46) and indirect downstream substrate was S6RP(S235/S236). The direct substrate for TORC2 was Akt(S473) and indirect downstream substrates measured were GSK3β(S9) and PRAS40(T246). Additionally, the phosphorylation status of Akt(T308), a phosphorylation site for PDK1 was monitored.
MSD® biomarker detection assays provide a rapid and convenient method for measuring the total and phosphorylated levels of protein targets within a single small volume sample. These assays are available in both single-plex and multiplex formats. In a single-plex assay, an antibody for a specific protein target is coated on one electrode (or spot) per well. […] MSD Read Buffer that provides the appropriate chemical environment for ECL is added and the plate is read using an MSD SECTOR™ Imager. […] The instrument measures intensity of the emitted light to afford a quantitative measure of the amount of phosphorylated Akt or S6RP present in the sample. […]
The assay plate was incubated with 150 μL of MSD Blocker A Solution for 1 hour with shaking at room temperature. […] Then 150 μL of 1×MSD Read Buffer T was added to each well. The plate was read on the SECTOR Imager plate reader. The Excel data was transferred to Activity Base and IC50 values were calculated.
All data was analyzed using XLfit from IDBS. […]

The test system of assay [2] is PRAS40 (T246). The assay can be described thus: Phospho-PRAS40 (T246) in PC-3 cell lysates, MSD (Compound 2). The format is cell-based. The note with it: Homo sapiens; PC-3, 1 hour; read-out: mTORC2 PRAS40 (T246) IC50. On the procedure:
The direct substrate for mTORC1 was 4E-BP1(T46) and the indirect downstream substrate was S6RP (S235/S236). The direct substrate for mTORC2 was AKT (S473) and the indirect downstream substrates measured were GSK3β(S9) and PRAS40 (T246). Additionally, the phosphorylation status of AKT (T308), a phosphorylation site for PDK1, was monitored. Concentration-response curves were plotted and IC50 values determined. Cells were plated in 96-well flat bottom plates at the required density (PC-3 cells/well) and the cells were allowed to equilibrate at 37° C., 5% CO2 overnight. […] After the incubation period, the culture media was removed carefully with an aspirator. The plate was placed on ice and 50 μL of 1× Tris Lysis Buffer was added to each well. The plate was placed on a shaker at 4° C. for 1 hour to lyse the cells. At that point, the plate was either frozen at -80° C. for later analysis or immediately assayed for phosphoproteins as described below. To monitor interassay variability, a reference standard was included in the assay for PC-3 cells and the coefficient of variation for assay of […]) was 9.3% (n=50) and for assay of p-AKT (S473) was 28.6% (n=50). The assay plate was incubated with 150 μL of MSD Blocking Buffer for 1 hour with shaking at room temperature. […] Then 150 μL of 1×MSD Read Buffer T was added to each well. The plate was read on the SECTOR Imager plate reader.

For two compounds, IC50 results are on record in patent US20140113904A1, “TREATMENT OF CANCER WITH TOR KINASE INHIBITORS” (SIGNAL PHARMACEUTICALS, LLC, priority 2012, published 2014).

As a reminder, the IC50 is the point on the concentration scale where inhibition reaches its midpoint. As to `CO[C@H]1CC[C@H](N2C(=O)CNc3ncc(-c4ccc(C(C)(C)O)nc4)nc32)CC1` [Compound 1, 7-(6-(2-hydroxypropan-2-yl)pyridin-3-yl)-1-((1r,4r)-4-methoxycyclohexyl)-3,4-dihydropyrazino-[2,3-b]pyrazin-2(1H)-one], in assay [1], the concentration for half-maximal inhibition (IC50) amounted to 0.01 µM. Regarding `CCN1C(=O)CNc2ncc(-c3ccc(-c4nc[nH]n4)nc3C)nc21` [Compound 2, 1-ethyl-7-(2-methyl-6-(1H-1,2,4-triazol-3-yl)pyridin-3-yl)-3,4-dihydropyrazino[2,3-b]pyrazin-2(1H)-one], the half-maximal inhibitory concentration (IC50) in assay [2] is 0.049 µM.
